Data as given in patent US20220048988A1, “CELLS EXPRESSING ANTIBODIES TARGETING HUMAN IMMUNODEFICIENCY VIRUS AND METHODS OF USING THE SAME” (priority 2018, published 2022).

Assays:
HIV SF162 = assay: Viral inhibition assay (p24); assay type: cell-based; settings: antibody alone, absence of NK cells, n=2 replicates
[1] = test system: viruses isolated from quantitative viral outgrowth assay (QVOA) supernatants; assay: Neutralization of viruses isolated from QVOA supernatants; assay type: cell-based, HIV
Description: (§1) We developed a method to perform paired testing of neutralization and infected-cell binding (predictive of ADCC^6) and applied this to 36 viruses that we isolated from quantitative viral outgrowth assay (QVOA) supernatants, using a panel of 14 clinically relevant bnAbs.

pseudovirus = assay: Standard pseudovirus neutralization assay; assay type: cell-based, HIV
Procedure: Virus neutralization by secreted 10-1074. We also tested whether the supernatants secreted from TbnAb are capable of neutralizing HIV by using a standard pseudovirus assay. Briefly, supernatants obtained from TbnAbs were diluted five fold and incubated with pseudovirus. Target cells were then added, and a single-round of infection was allowed to proceed for 48 h^1. In certain lines, we observed 20-30% neutralization of virus at this single concentration (data not shown). […] (data not shown). […] Thus, the data support that the 10-1074 in these supernatants is functionally equivalent to purified 10-1074 on a per concentration basis.

HIV = settings: in a subset of the population; cited from earlier work
[2] = test system: viruses isolated from quantitative viral outgrowth assay (QVOA) supernatants; assay: Infected-cell binding with viruses isolated from QVOA supernatants; design: species or system HIV
Description: as §1

[3] = test system: HIV-infected CD4+ T-cells; assay: Binding of secreted 10-1074 bnAb to HIV-infected CD4+ T-cells (flow cytometry); settings: virus from latent reservoir of participant OM5334, high MOI (~70% Gag+)
Description: Binding of secreted 10-1074 bnAb to HIV-Infected CD4^+ T-cells. […] These cells were then stained with a fluorochrome-conjugated anti-human-IgG1 antibody, and analyzed by flow cytometry. […] We therefore performed an additional experiment using a lower multiplicity of infection (MOI) of the HIV molecular clone SF162. […] However, it has been well-established that Ab-binding to infected cells is predictive of ADCC^6.

non-expressing cells = assay: HIV binding: non-expressing cells (flow cytometry); settings: supernatant of transduced cells
[4] = test system: HIV envelope expressing HeLa cells; assay: HIV binding: HIV envelope expressing HeLa cells (flow cytometry); settings: supernatant of transduced cells
Procedure: HIV envelope expressing HeLa cells were obtained from NIH AIDS Reagent Program (69T1 RevEnv Cells, #3336). HeLa Envelope cells were fixed with 4.2% paraformaldehyde (BD, #554655) for 20 minutes at 4° C. Cells were washed in chilled Facs Buffer (PBS+2% FBS) and incubated in supernatant containing secreted antibody from transduced Jurkat T cells or non-specific antibodies from nontransduced Jurkat T cells for 1 hour at room temperature. Cells were washed an additional two times in Facs Buffer and incubated with goat anti-human IgG (H+L) FITC (Life Technologies, #H10301) for 30 minutes at room temperature.
To test whether the T cell secreted antibodies maintain their ability to recognize HIV envelope, we used HeLa cells expressing Env obtained from the AIDS reagent program.

[5] = molecular target: HIV envelope (Env) expressed on HeLa cells (69T1 RevEnv Cells) (HIV); assay: cell-based or functional assay
[6] = molecular target: 36 viruses isolated from quantitative viral outgrowth assay (QVOA) supernatants; assay: cell-based or functional assay

10-1074: Monoclonal antibody 10-1074 targets the V3 glycan supersite on the HIV-1 envelope (Env) protein; broadly neutralizing
HIV p24 (viral inhibition) (HIV SF162; FIG. 10A): 6892.442±168.555 | HIV p24 (viral inhibition) (HIV SF162; FIG. 10B): 757.911±163.351 | HIV p24 (viral inhibition) (HIV SF162; FIG. 10C): 22914.671±2305.507 | viruses potently neutralized ([1]; 36 viruses isolated from QVOA supernatants): 24/36 | median IC50 against reservoir viruses ([1]; reservoir viruses): 0.3 µg/mL | concentration giving 20-30% neutralization (pseudovirus; purified antibody curves): 0.01 to 0.1 µg/mL | HIV RNA levels (HIV): transiently decrease HIV RNA levels | binding characteristics (breadth and potency) ([2]; 36 viruses, panel of 14 bnAbs): superior binding characteristics | infected cell binding ([2]; OM5162 virus isolate #3): lack of 10-1074 binding | infected cell binding ([2]; patient OM5162 virus isolate #1): binding | binding to HIV-infected CD4+ T cells [3]: efficient binding

TbnAb secreted 10-1074: 10-1074 antibody secreted into supernatants by transduced T cells
neutralization of virus (pseudovirus; supernatants diluted five fold (0.03 ug/ml of 10-1074), single-round infection 48 h, certain lines): 20-30% | binding to non-expressing cells (non-expressing cells): not | binding to envelope-expressing cells [4]: bind | binding to HIV-infected CD4+ T cells [3]: specific binding | binding to HIV-infected CD4+ T cells ([3]; listed as antibody secreted by HIV specific TbnAb cell lines): specifically binds

B1: T cell-secreted 10-1074 antibody from the 10-1074 Ab construct (IgG3 constant region) (antibody, V domains shown)
VH: QVQLQESGPGLVKPSETLSVTCSVSGDSMNNYYWTWIRQSPGKGLEWIGYISDRESATYNPSLNSRVVISRDTSKNQLSLKLNSVTPADTAVYYCATARRGQRIYGVVSFGEFFYYYSMDVWGKGTTVTVSS
VL: SYVRPLSVALGETARISCGRQALGSRAVQWYQHRPGQAPILLIYNNQDRPSGIPERFSGTPDINFGTRATLTISGVEAGDEADYYCHMWDSRSGFSWSFGGATRLTVLV
NK cell killing (ADCC; europium cytotoxicity assay, primary NK cells) [5]: 34.5 | increase in killing from ADCC [5]: 10.5%

B2: 10-1074 antibody (purified) (antibody, V domains shown)
VH: QVQLQESGPGLVKPSETLSVTCSVSGDSMNNYYWTWIRQSPGKGLEWIGYISDRESATYNPSLNSRVVISRDTSKNQLSLKLNSVTPADTAVYYCATARRGQRIYGVVSFGEFFYYYSMDVWGKGTTVTVSS
VL: SYVRPLSVALGETARISCGRQALGSRAVQWYQHRPGQAPILLIYNNQDRPSGIPERFSGTPDINFGTRATLTISGVEAGDEADYYCHMWDSRSGFSWSFGGATRLTVL
median IC50 (neutralization) [6]: 0.3 µg/mL
